Legend:
[1] = biological target: T1, Programmed cell death protein 1/Programmed cell death 1 ligand 1 (Homo sapiens) (UniProt Q15116+Q9NZQ7); test: Inhibition of PD-1/PD-L1 (unknown origin) interaction assessed as inhibition rate at 1 uM by HTRF assay relative to control; type: protein-complex assay
[2] = biological target: T1, Programmed cell death protein 1/Programmed cell death 1 ligand 1 (Homo sapiens); test: Inhibition of PD-1/PD-L1 (unknown origin) interaction assessed as inhibition rate at 0.1 uM by HTRF assay relative to control; type: protein-complex assay
Histone deacetylase 3 [3] = biological target: T2, Histone deacetylase 3 (Homo sapiens, UniProt O15379); test: Inhibition of human recombinant HDAC3 using Ac-Leu-Gly-Lys (Ac)-AMC as substrate at 1 uM preincubated for 10 mins followed by substrate addition and measured after 45 mins by TECAN microtiter plate reader analysis relative to control; details: time 55.0 min
T2 sequence (O15379 whole entry): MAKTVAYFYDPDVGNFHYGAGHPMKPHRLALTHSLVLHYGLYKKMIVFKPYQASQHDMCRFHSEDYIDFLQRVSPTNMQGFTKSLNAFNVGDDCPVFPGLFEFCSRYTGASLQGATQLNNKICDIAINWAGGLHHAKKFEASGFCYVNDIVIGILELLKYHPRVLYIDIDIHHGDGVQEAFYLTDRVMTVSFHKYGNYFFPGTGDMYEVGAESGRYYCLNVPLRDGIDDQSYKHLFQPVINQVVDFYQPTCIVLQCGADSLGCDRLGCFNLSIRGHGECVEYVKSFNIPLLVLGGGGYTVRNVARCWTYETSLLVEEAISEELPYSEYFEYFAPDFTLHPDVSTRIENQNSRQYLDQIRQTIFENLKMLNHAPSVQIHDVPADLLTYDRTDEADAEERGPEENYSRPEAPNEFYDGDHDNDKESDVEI

Histone deacetylase 3 [4] = biological target: T2, Histone deacetylase 3; test: Inhibition of human recombinant HDAC3 using Ac-Leu-Gly-Lys (Ac)-AMC as substrate at 0.1 uM preincubated for 10 mins followed by substrate addition and measured after 45 mins by TECAN microtiter plate reader analysis relative to control; details: time 55.0 min

Compound | inhibition [1] | inhibition [2] | inhibition (Histone deacetylase 3 [3]) | inhibition (Histone deacetylase 3 [4])
CCCNNC(=O)c1ccc(NCc2ccc(-c3cccc(-c4ccccc4)c3C)nc2OC)c(C)c1 | 4.65% | -0.25% | – | –
CCCNNC(=O)CCCCCCNCc1ccc(-c2cccc(-c3ccccc3)c2C)nc1OC | 89.8% | 12.5% | 55.8% | –
CCCNNC(=O)C1CCN(Cc2ccc(-c3cccc(-c4ccccc4)c3C)nc2OC)CC1 | 82.7% | 21.7% | 71.3% | 33.2%
CCCNNC(=O)CCNCc1ccc(-c2cccc(-c3ccccc3)c2C)nc1OC | 92.4% | 58.8% | 67.2% | 36%
CCCNNC(=O)c1cnc(N(C)CCN(C)Cc2ccc(-c3cccc(-c4ccccc4)c3C)nc2OC)nc1 | 28.8% | 5.96% | – | –
CCCNNC(=O)c1ccc(NCc2ccc(-c3cccc(-c4ccccc4)c3C)nc2OC)cc1 | 7.61% | 1.83% | – | –
CCCNNC(=O)CC1CCCN(Cc2ccc(-c3cccc(-c4ccccc4)c3C)nc2OC)C1 (stereo unspecified) | 59.1% | 4.75% | – | –
CCCNNC(=O)c1cnc(NCCNCc2ccc(-c3cccc(-c4ccccc4)c3C)nc2OC)nc1 | 95.1% | 44.5% | < 50% | –
CCCNNC(=O)c1ccc(CNCc2ccc(-c3cccc(-c4ccccc4)c3C)nc2OC)cc1 | 42.4% | 11.3% | – | –
CCCNNC(=O)c1ccc(NCCNCc2ccc(-c3cccc(-c4ccccc4)c3C)nc2OC)cc1 | 11.1% | 4.12% | – | –
CCCNNC(=O)c1cnc(N2CC(NCc3ccc(-c4cccc(-c5ccccc5)c4C)nc3OC)C2)cn1 | 54.5% | 13.5% | – | –
CCCNNC(=O)c1cnc(N2CC(NCc3ccc(-c4cccc(-c5ccccc5)c4C)nc3OC)C2)nc1 | 68.2% | 17.8% | – | –
CCCNNC(=O)CC1CCN(Cc2ccc(-c3cccc(-c4ccccc4)c3C)nc2OC)CC1 | 89.4% | 25.7% | < 50% | –
CCCNNC(=O)c1cnc(N2CCC(NCc3ccc(-c4cccc(-c5ccccc5)c4C)nc3OC)CC2)cn1 | 62.6% | 7.82% | – | –
CCCNNC(=O)c1cnc(NCCCNCc2ccc(-c3cccc(-c4ccccc4)c3C)nc2OC)cn1 | 80.9% | 18.8% | < 50% | –
CCCNNC(=O)CNCc1ccc(-c2cccc(-c3ccccc3)c2C)nc1OC | 68.9% | 19.5% | – | –
CCCNNC(=O)c1ccc(NCCNCc2ccc(-c3cccc(-c4ccccc4)c3C)nc2OC)nn1 | 78.5% | 9.3% | 69.5% | 38.5%
CCCNNC(=O)c1cnc(N2CCC(NCc3ccc(-c4cccc(-c5ccccc5)c4C)nc3OC)CC2)nc1 | 71.7% | 3.6% | < 50% | –
CCCNNC(=O)c1ccc(C(=O)NCCNCc2ccc(-c3cccc(-c4ccccc4)c3C)nc2OC)cc1 | 88.1% | 23.4% | 74.3% | 46.8%

Source: ChEMBL document CHEMBL6109156, “Discovery of Dual PD-L1/HDAC3 Inhibitors for Tumor Immunotherapy” (J Med Chem, 2025)
